The compounds below were run against SGK1 (human) (UniProt O00141) (assay: Flashplate).
SGK1 (human), sequence (O00141 whole entry, looked up): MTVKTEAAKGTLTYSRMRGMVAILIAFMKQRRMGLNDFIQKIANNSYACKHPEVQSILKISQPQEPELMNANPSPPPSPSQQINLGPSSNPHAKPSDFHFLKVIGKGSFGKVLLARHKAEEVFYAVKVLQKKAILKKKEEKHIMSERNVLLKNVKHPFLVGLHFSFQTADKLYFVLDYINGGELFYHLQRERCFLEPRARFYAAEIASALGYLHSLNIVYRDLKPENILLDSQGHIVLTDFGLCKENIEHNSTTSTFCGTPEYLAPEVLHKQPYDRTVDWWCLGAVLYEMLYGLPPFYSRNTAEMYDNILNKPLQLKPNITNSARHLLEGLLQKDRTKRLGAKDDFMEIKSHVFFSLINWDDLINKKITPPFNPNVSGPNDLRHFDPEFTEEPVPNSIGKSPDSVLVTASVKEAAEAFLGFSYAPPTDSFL

Row | SMILES | Ki [µM]
1 | COc1cccc(/C=C2/S/C(=N\c3ccccc3)NC2=O)c1 | > 10
2 | N[C@H](COc1cncc(-c2ccc(F)cc2)c1)Cc1c[nH]c2ccccc12 | > 10
3 | O=c1[nH]c2sc3c(c2c2nc(-c4ccncc4)nn12)CCCC3 | > 10
4 | COc1cncc(/C=C/c2ccncc2)c1 | > 10
5 | CCN1C(=O)N(C)c2cnc(Nc3ccc(C(=O)NC4CCN(C)CC4)cc3OC)nc2N1C1CCCC1 | > 10
6 | Fc1ccc(-c2ncn(CCN3CCOCC3)c2-c2ccc3[nH]ncc3c2)cc1 | > 10
7 | CC(=O)N1CCN(C2CCC(n3nc(-c4ccc(NC(=O)c5cc6ccccc6n5C)cc4)c4c(N)ncnc43)CC2)CC1 (configuration not stated) | > 10
8 | COc1cccc([C@H](C)NC(=O)c2ccc(-c3ccncc3)cc2)c1 | > 10
9 | O=C(Nc1cccc(C(F)(F)F)n1)Nc1ccnc2c(C(F)(F)F)cccc12 | > 10
10 | NC(=O)C1CCCN(C(=O)c2cc(-c3ccc4[nH]ncc4c3)on2)C1 (configuration not stated) | > 10
11 | NCCCOc1cncc(/C=C/c2ccncc2)c1 | > 10
12 | CNC(=O)c1cc(Oc2ccc(NC(=O)Nc3cccc(C(F)(F)F)c3)cc2)ccn1 | > 10
13 | COc1nccn2c(-c3ccnc(NCC(C)(C)CO)n3)c(-c3ccc(F)cc3F)nc12 | > 10
14 | COc1cc(C(=O)O)c(Cl)cc1NC(=O)Nc1cnc(C#N)cn1 | > 10
15 | O=C(Nc1ccc(-c2cccc3sncc23)cc1)Nc1ccc(F)c(C(F)(F)F)c1 | > 10
16 | CC(C)(CO)CNc1nccc(-c2c(-c3ccc(F)cc3)nc3c(OCC(F)(F)F)nccn23)n1 | > 10
17 | Cc1cc(N2CCOCC2)cc2[nH]c(-c3c(NC[C@@H](O)c4cccc(Cl)c4)cc[nH]c3=O)nc12 | > 10
18 | CC1=NN(c2ccc(C(=O)O)cc2)C(=O)/C1=C/c1c(C)c(C#N)c2nc3ccccc3n2c1O | > 10
19 | O=C(NNC(=S)Nc1ccc(F)cc1)C(O)(c1ccccc1)c1ccccc1 | > 10
20 | COc1ccc2c(NC(=O)Nc3cccc(C(F)(F)F)n3)ccnc2c1 | > 10
21 | CC(C)(C)OC(=O)n1ncc2cc(Nc3c(NCc4ccc(S(N)(=O)=O)cc4)c(=O)c3=O)ccc21 | > 10
22 | CC1CSc2c(C(=O)O)c(=O)c3cc(F)c(N4CC[C@@H](N)C4)c(F)c3n21 (some centres not stated) | > 10
23 | O=C(Nc1cccc(-c2nc3sccn3c2-c2ccnc(Nc3cccc(N4CCCC4=O)c3)n2)c1)c1c(F)cccc1F | > 10
24 | CC(=O)Nc1cc(N)c(C#N)c(-c2ccc3ccccc3c2)n1 | > 10
25 | CCCCn1c(NC(=O)c2cccc(C#N)c2)nc2cc(N(C)C(=O)C3CCCCC3)ccc21 | > 10
26 | CCc1cccc(NC(=O)Nc2ccc3c(c2)CCc2sc4ncnc(N)c4c2-3)c1 | > 10
27 | COc1cc(S(C)(=O)=O)c(OC)cc1CC(=O)Nc1cc(N)c(C#N)c(OC(C)C)n1 | > 10

Second part, the compound after the results:

Row | Ki [µM] | SMILES
28 | > 10 | COc1ccc(OC)c(NC(=O)c2cnn3c(-c4ccccc4)ccnc23)c1
29 | > 10 | Cc1nc2c(sc3c(Br)ccc(Cl)c32)c(=O)o1
30 | 1 | Nc1n[nH]c2cccc(-c3ccc(NC(=O)Nc4ccccc4)cc3)c12
31 | 0.794 | Cc1ccc(Nc2nc3ccc([N+](=O)[O-])cc3[nH]2)nc1
32 | 0.0631 | Nc1n[nH]c2ccc(-c3nnn(Cc4ccccc4)c3I)cc12
33 | 5.01 | NC[C@@H](O)[C@@H](O)Cn1cc(I)c2c(N)ncnc21
34 | 1.26 | CC(C)(C)c1ccc2nc(-c3n[nH]c4ccccc34)[nH]c2c1
35 | > 6.31 | c1ccc(-c2c[nH]c3ncnc(N4CCCCC4)c23)cc1
36 | 3.98 | Nc1ncnc2scc(-c3ccc(NC(=O)Nc4ccccc4)cc3)c12
37 | 0.631 | CC(C)N(C)C(=O)c1c(-c2ccc3[nH]ncc3c2)nnn1Cc1ccccc1
38 | > 7.94 | Cn1c(NC[C@@H](N)Cc2ccccc2)nc(-c2ccncc2)c(-c2ccc3ccccc3c2)c1=O
39 | 7.94 | CN(C)CC(=O)N[C@H](COc1cncc(-c2ccc3cnccc3c2)c1)Cc1c[nH]c2ccccc12
40 | 1.26 | NC(=O)c1cc2c(-c3ccc(F)cc3F)cncc2s1
41 | 3.16 | CNC(=O)c1cnc(N)c2c(-c3ccc(NC(=O)Nc4cccc(Cl)c4)cc3)csc12
42 | 0.126 | O=C(N/N=C/c1ccc(O)cc1O)Nc1cccc2nsnc12

Reference: the kinase profiling compilation of Christmann-Franck et al. (2016)
